The values below come from patent US20100298377A1, “NOVEL SUBSTITUTED INDAZOLES, THE PREPARATION THEREOF AND USE OF SAME IN THERAPEUTICS” (SANOFI-AVENTIS, priority 2007, published 2010).

Where a name gives a salt, the structure may show the parent alone.

The target of the first data set is AKT1 (Homo sapiens, UniProt P31749, S473D). Kind of data set: Determination of the IC50 for AKT1 (HTRF). Format: biochemical. The following applies: AKT1 without PH domain, activated by PDK1. As for the experimental part: Determination of the IC50 for AKT1
Chain of AKT1 (P31749 118-480 S473D limits assumed): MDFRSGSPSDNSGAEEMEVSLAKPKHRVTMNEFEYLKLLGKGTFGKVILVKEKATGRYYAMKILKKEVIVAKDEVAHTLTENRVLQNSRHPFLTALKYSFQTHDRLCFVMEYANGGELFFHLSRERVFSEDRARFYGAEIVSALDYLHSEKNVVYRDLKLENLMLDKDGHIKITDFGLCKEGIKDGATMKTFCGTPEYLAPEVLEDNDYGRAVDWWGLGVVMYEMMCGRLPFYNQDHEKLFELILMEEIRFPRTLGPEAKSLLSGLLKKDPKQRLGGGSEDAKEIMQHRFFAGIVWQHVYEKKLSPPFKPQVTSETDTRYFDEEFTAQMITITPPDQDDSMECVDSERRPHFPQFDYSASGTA
The inhibitory potential of the compounds is evaluated by HTRF, a time-resolved fluorescence technique based on non-radiative energy transfer (FRET). […] This phosphorylation allows the kinase activity of AKT1 to be activated.
Starting with a 10 mM solution of inhibitors, 3 μl are taken and placed in a 96-well polypropylene plate containing 27 μl of 100% DMSO. The various test compounds are diluted in cascade by taking 15 μl of compound, to which are added 30 μl of 100% DMSO.
The various reaction components are added in the following manner:
Next, 10 μl of the inhibitor solution are added. Finally, the reaction is initiated by adding 10 μl of a solution containing both 100 μM of ATP and 10 μM of biotinylated peptide. The sequence of this peptide is as follows: biot-[…] (reference Neosystem SP000560). The plate is then covered with a plastic film, agitated and finally incubated at RT for 30 minutes. […] After incubation overnight at 4° C., the plate is read using an Ultra evolution spectrophotometer from Tecan. […] All the tests are performed in duplicate and the mean of the two tests is calculated.
For each point, a delta F is calculated in the following manner:
R(Ratio)=counts665 nm/counts620 nm
ΔF % is calculated by the Tecan Ultra Evolution machine.
Regarding `CN1CCCCC1C(NC(=O)Nc1ccc2[nH]nc(-c3ccc(S(N)(=O)=O)cc3)c2c1)c1ccccc1` [Ex 12, 4-[5-({[(1-Methylpiperid-2-yl)(phenyl)methyl]carbamoyl}amino)-1H-indazol-3-yl]benzenesulfonamide((S,2S),(R,2R))], the concentration for half-maximal inhibition (IC50) (usually the concentration needed to halve the response being measured) was < 100 nM.

Regarding `CN1CCCCC1C(NC(=O)Nc1ccc2[nH]nc(-c3cccnc3)c2c1)c1ccccc1` [Ex 14, 1-[(1-Methylpiperid-2-yl)(phenyl)methyl]-3-(3-pyrid-3-yl-1H-indazol-5-yl)urea((S,2S),(R,2R))], the IC50 is < 100 nM.

`CN1CCCCC1C(NC(=O)Nc1cc(F)c2[nH]nc(NC(=O)c3ccccc3)c2c1)c1ccccc1` [Ex 19, N-[7-Fluoro-5-({[(1-methylpiperid-2-yl)(phenyl)methyl]carbamoyl}amino)-1H-indazol-3-yl]benzamide((S,2S),(R,2R))] returned an IC50 of 500 to 2000 nM.

The compound `CN1CCCCC1C(NC(=O)Nc1ccc2[nH]nc(C#Cc3cccc(F)c3)c2c1)c1ccccc1` [Ex 22, 1-{3-[(3-Fluorophenyl)ethynyl]-1H-indazol-5-yl}-3-[(1-methylpiperid-2-yl)(phenyl)methyl]urea((S,2S),(R,2R))] gave an IC50 of 100 to 500 nM.

`O=C(Nc1ccc2[nH]nc(C#Cc3ccccc3)c2c1)N[C@@H](c1ccc(Cl)c(Cl)c1)[C@@H]1CCCCN1` [Ex 26, 1-{(S)-(3,4-Dichlorophenyl)[(2S)-piperid-2-yl]methyl}-3-[3-(phenylethynyl)-1H-indazol-5-yl]urea] returned an IC50 of 100 to 500 nM.

For the compound `CN1CCCCC1C(NC(=O)Nc1ccc2[nH]nc(NC(=O)c3ccccc3)c2c1)c1ccccc1` [Ex 28, N-[5-({[(1-Methylpiperid-2-yl)(phenyl)methyl]carbamoyl}amino)-1H-indazol-3-yl]benzamide((S,2S),(R,2R))], the concentration for half-maximal inhibition (IC50) is 100 to 500 nM.

With `CN1CCCCC1C(c1ccccc1)n1ccn(-c2ccc3[nH]ncc3c2)c1=O` [Ex 30, 1-(1H-Indazol-5-yl)-3-[(1-methylpiperid-2-yl)phenylmethyl]-1,3-dihydroimidazol-2-one((S,2S),(R,2R))], the IC50 lay within 100 to 500 nM.

Compound `CN1CCCCC1C(c1ccccc1)N(C)C(=O)Nc1ccc2[nH]ncc2c1` [Ex 32, 3-(1H-Indazol-5-yl)-1-methyl-1-[(1-methylpiperid-2-yl)phenylmethyl]urea((S,2S),(R,2R))] gave a half-maximal inhibitory concentration (IC50) of 500 to 2000 nM.

Take `CN(C(=O)NC(c1ccccc1)C1CCCCN1C)c1ccc2[nH]ncc2c1` [Ex 33, 1-(1H-Indazol-5-yl)-1-methyl-3-[(1-methylpiperid-2-yl)(phenyl)methyl]urea((S,2S),(R,2R))]: the half-inhibitory concentration (IC50) lay within 500 to 2000 nM.

For the compound `O=C(Nc1ccc2[nH]ncc2c1)O[C@@H](c1cc(F)cc(Cl)c1)[C@H]1CCCCN1` [Ex 39c, (S)-(3-Chloro-5-fluorophenyl)[(2R)-piperid-2-yl]methyl 1H-indazol-5-ylcarbamate], the IC50 lay in the range of 100 to 500 nM.

For the compound `O=C(Nc1ccc2[nH]ncc2c1)O[C@H](c1cc(F)cc(Cl)c1)[C@H]1CCCCN1` [Ex 39d, (R)-(3-Chloro-5-fluorophenyl)[(2R)-piperid-2-yl]methyl 1H-indazol-5-ylcarbamate], the concentration for half-maximal inhibition (IC50) is < 100 nM.

The compound `CCOC(=O)c1cccc(C(OC(=O)Nc2ccc3[nH]ncc3c2)[C@@H]2CCCCN2)c1` (stereo partly drawn) [Ex 41, Ethyl 3-{[(1H-Indazol-5-ylcarbamoyl)oxy][(2S)-piperid-2-yl]methyl}benzoate] registered a concentration for half-maximal inhibition (IC50) of 500 to 2000 nM.

`CC(C)(C)c1ccc(NC(=O)c2cccc(C(OC(=O)Nc3ccc4[nH]ncc4c3)[C@@H]3CCCCN3)c2)cc1` (stereo partly drawn) [Ex 42, {3-[(4-tert-Butylphenyl)carbamoyl]phenyl}[(2S)-piperid-2-yl]methyl 1H-Indazol-5-yl carbamate]: the half-maximal inhibitory concentration (IC50) fell in the range of 500 to 2000 nM.

Compound `O=C(Nc1ccc2[nH]ncc2c1)OC(c1cccc(C(=O)Nc2ccccc2)c1)[C@@H]1CCCCN1` (stereo partly drawn) [Ex 43, [3-(Anilinocarbonyl)phenyl][(2S)-piperid-2-yl]methyl 1H-Indazol-5-ylcarbamate] gave an IC50 of 100 to 500 nM.

Take `O=C(Nc1ccc2[nH]ncc2c1)O[C@@H](c1cccc(C(F)(F)F)c1)[C@@H]1CCCCN1` [Ex 44, (S)-(3-Trifluoromethylphenyl)[(2S)-piperid-2-yl]methyl 1H-indazol-5-ylcarbamate]: the half-inhibitory concentration (IC50) was < 100 nM.

For `O=C(Nc1ccc2[nH]ncc2c1)O[C@@H](c1cccc(I)c1)[C@@H]1CCCCN1` [Ex 45, (S)-(3-Iodophenyl)[(2S)-piperid-2-yl]methyl 1H-indazol-5-ylcarbamate], the IC50 is < 100 nM.

As for “(7-Fluoro-1H-indazol-5-yl)-(S)-(3-chloro-5-fluorophenyl)-(S)-piperid-2-ylmethyl carbamate [Ex 49]”, the IC50 is < 100 nM.

Test system in the next data set: not given
Experiment: not given
Details: not given
With `CN1CCCCC1C(NC(=O)Nc1ccc2[nH]nc(NC(=O)c3ccccc3)c2c1)c1ccccc1` (as salt: fumarate) [Ex 28, N-[5-({[(1-Methylpiperid-2-yl)(phenyl)methyl]carbamoyl}amino)-1H-indazol-3-yl]benzamide((S,2S),(R,2R))], the melting point (commonly the temperature of the solid-liquid transition) stood at 235 °C.

Consider `CN1CCCCC1C(c1ccccc1)n1ccn(-c2ccc3[nH]ncc3c2)c1=O` (as salt: fumarate) [Ex 30, 1-(1H-Indazol-5-yl)-3-[(1-methylpiperid-2-yl)phenylmethyl]-1,3-dihydroimidazol-2-one((S,2S),(R,2R))], for which the melting point was 231 to 232 °C.

With `S=C(Nc1ccc2[nH]ncc2c1)N[C@@H](c1ccc(Cl)c(Cl)c1)[C@@H]1CCCCN1` (as salt: fumarate) [Ex 31, 1-{(S)-(3,4-Dichlorophenyl)[(2S)-piperid-2-yl]methyl}-3-(1H-indazol-5-yl)thiourea], the melting point amounted to 145 °C.

`CN1CCCCC1C(NC(=O)Nc1ccc2[nH]nc(-c3ccc(S(N)(=O)=O)cc3)c2c1)c1ccccc1` (as salt: fumaric acid salt) [Ex 12, 4-[5-({[(1-Methylpiperid-2-yl)(phenyl)methyl]carbamoyl}amino)-1H-indazol-3-yl]benzenesulfonamide((S,2S),(R,2R))] registered a melting point of 220 °C.

Compound `CN1CCCCC1C(NC(=O)Nc1ccc2[nH]nc(-c3ccncc3)c2c1)c1ccccc1` (as salt: fumaric acid salt) [Ex 13, 1-[(1-Methylpiperid-2-yl)(phenyl)methyl]-3-(3-pyrid-4-yl-1H-indazol-5-yl)urea((S,2S),(R,2R))] had a melting point of 205 °C.

The compound `CN1CCCCC1C(NC(=O)Nc1ccc2[nH]nc(-c3cccnc3)c2c1)c1ccccc1` (as salt: fumaric acid salt) [Ex 14, 1-[(1-Methylpiperid-2-yl)(phenyl)methyl]-3-(3-pyrid-3-yl-1H-indazol-5-yl)urea((S,2S),(R,2R))] gave a melting point of 210 °C.

`CN1CCCCC1C(NC(=O)Nc1ccc2[nH]nc(-c3ccccn3)c2c1)c1ccccc1` (as salt: fumaric acid salt) [Ex 15, 1-[(1-Methylpiperid-2-yl)(phenyl)methyl]-3-(3-pyrid-2-yl-1H-indazol-5-yl)urea((S,2S),(R,2R))]: the melting point was > 250 °C.

As for `CN1CCCCC1C(NC(=O)Nc1ccc2[nH]nc(-c3nc4ccccc4[nH]3)c2c1)c1ccccc1` (as salt: fumaric acid salt) [Ex 17, 1-[3-(1H-Benzimidazol-2-yl)-1H-indazol-5-yl]-3-[(1-methylpiperid-2-yl)(phenyl)methyl]urea((S,2S),(R,2R))], the melting point came out at 250 °C.

The compound `Cc1n[nH]c2ccc(NC(=O)NC(c3ccccc3)C3CCCCN3C)cc12` (as salt: fumaric acid salt) [Ex 18, 3-Methyl-5-({[(1-methylpiperid-2-yl)(phenyl)methyl]carbamoyl}amino)-1H-indazole ((S,2S),(R,2R))] registered a melting point of 200 to 201 °C.

Take `CN1CCCCC1C(NC(=O)Nc1cc(F)c2[nH]nc(NC(=O)c3ccccc3)c2c1)c1ccccc1` (as salt: fumaric acid salt) [Ex 19, N-[7-Fluoro-5-({[(1-methylpiperid-2-yl)(phenyl)methyl]carbamoyl}amino)-1H-indazol-3-yl]benzamide((S,2S),(R,2R))]: the melting point worked out at 164 °C.

`CN1CCCCC1C(NC(=O)Nc1cc(F)c2[nH]nc(N)c2c1)c1ccccc1` (as salt: fumaric acid salt) [Ex 20, 1-(3-Amino-7-fluoro-1H-indazol-5-yl)-3-[(1-methylpiperid-2-yl)(phenyl)methyl]urea((S,2S),(R,2R))] gave a melting point of 221 to 222 °C.

As for `CN1CCCCC1C(NC(=O)Nc1cc(F)c2[nH]ncc2c1)c1ccccc1` (as salt: fumaric acid salt) [Ex 21, 1-(7-Fluoro-1H-indazol-5-yl)-3-[(1-methylpiperid-2-yl)(phenyl)methyl]urea((S,2S),(R,2R))], the melting point lay within 224 to 227 °C.

As to `CN1CCCCC1C(NC(=O)Nc1ccc2[nH]nc(C#Cc3ccccc3)c2c1)c1ccccc1` (as salt: fumaric acid salt) [Ex 23, 1-[(1-Methylpiperid-2-yl)(phenyl)methyl]-3-[3-(phenylethynyl)-1H-indazol-5-yl]urea((S,2S),(R,2R))], the melting point was 227 °C.

In turn, `CN1CCCCC1C(NC(=O)Nc1ccc2[nH]nc(C#Cc3ccc(F)cc3)c2c1)c1ccccc1` (as salt: fumaric acid salt) [Ex 24, 1-{3-[(4-Fluorophenyl)ethynyl]-1H-indazol-5-yl}-3-[(1-methylpiperid-2-yl)(phenyl)methyl]urea((S,2S),(R,2R))] registered a melting point of 244 °C.
